Patent US20260022142A1, “MACROCYCLIC IMMUNOMODULATORS” (Bristol-Myers Squibb Company, priority 2022, published 2026)
Bridge positions count the residues as written; N and C are the ends. Square brackets hold non-standard residues; d marks the D form. Peptide text beside a SMILES is read from it. * marks the point of attachment. ξ: configuration not given here. Phe(4-COOH) = N[C@@H](Cc1ccc(C(=O)O)cc1)C(=O)O; Bip = N[C@@H](Cc1ccc(-c2ccccc2)cc1)C(=O)O; Phe(3-Me) = Cc1cccc(C[C@H](N)C(=O)O)c1; Val(3-OH) = CC(C)(O)[C@H](N)C(=O)O; hhPhe = N[C@@H](CCCc1ccccc1)C(=O)O; hArg = N=C(N)NCCCC[C@H](N)C(=O)O; 3Thi = N[C@@H](Cc1ccsc1)C(=O)O; Cha = N[C@@H](CC1CCCCC1)C(=O)O; Cit = NC(=O)NCCC[C@H](N)C(=O)O; aThr = C[C@H](O)[C@H](N)C(=O)O; Thr(3ξ) = CC(O)[C@H](N)C(=O)O; 12Ado = NCCCCCCCCCCCC(=O)O; dOrn = NCCC[C@@H](N)C(=O)O; Carboxymethyl = O=C(O)C*; Orn = NCCC[C@H](N)C(=O)O; Aun = NCCCCCCCCCCC(=O)O; Dab = NCC[C@H](N)C(=O)O; Dap = NC[C@H](N)C(=O)O; AEEA = NCCOCCOCC(=O)O; Piv = CC(C)(C)C(=O)*

Target: T1, PD-1/PD-L1 interaction (PE-labeled human PD-L1-Ig binding to Jurkat cell line over-expressing human PD-1) (Homo sapiens, UniProt Q15116)
T1 construct: expressed in transfected cells; host or cells: Jurkat
T1 sequence (Q15116 25-288): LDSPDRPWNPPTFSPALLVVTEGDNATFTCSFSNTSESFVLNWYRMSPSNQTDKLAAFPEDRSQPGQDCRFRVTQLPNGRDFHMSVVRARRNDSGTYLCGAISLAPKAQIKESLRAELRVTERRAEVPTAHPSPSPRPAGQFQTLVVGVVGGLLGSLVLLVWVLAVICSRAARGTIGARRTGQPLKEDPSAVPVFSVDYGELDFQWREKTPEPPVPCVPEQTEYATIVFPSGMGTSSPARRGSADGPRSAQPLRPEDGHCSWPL
Experiment: Jurkat-PD-1 Cell Binding High-Content Screening Assay (CBA)
Assay type: cell-based
Conditions: Jurkat cell line over-expressing human PD-1; PE-labeled PD-L1-Ig 20 nM final; read-out: Jurkat hPD1-PDL1 IC50
Outline: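 Read-out is high-content imaging of cell-bound phycoerythrin-tagged PD-L1-Ig on fixed, Hoechst-counterstained Jurkat cells that over-express human PD-1. Compound exposure lasts 2 h at 37° C before the labeled ligand (20 nM final) is added for a further hour.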

Compound | IC50 [nM]
Cc1cccc(C[C@@H]2NC(=O)[C@H](CC(=O)O)NC(=O)[C@H](Cc3ccc(OCC(=O)O)cc3)NC(=O)[C@H](Cc3ccccc3)NC(=O)CSC[C@@H](C(=O)N[C@@H](CCN)C(=O)NCCCCCCCCCCC(=O)O)NC(=O)[C@H]([C@@H](C)O)NC(=O)[C@H](C(C)C)NC(=O)[C@H](CC3CCCCC3)NC(=O)[C@H](CCN)NC(=O)[C@@H](CC(C)C)NC(=O)[C@H](CCCN)NC(=O)[C@H](CCCNC(N)=O)NC(=O)[C@H](Cc3ccc(-c4ccccc4)cc3)NC(=O)[C@H](C(C)C)NC2=O)c1 [Compound 2825] ({CH2CO}-FY(Carboxymethyl)D[Phe(3-Me)]V[Bip][Cit][Orn][dL][Dab][Cha]VTC[Dab][Aun]-OH; thioether N-14) | 201
Cc1cccc(C[C@@H]2NC(=O)[C@H](CC(=O)O)NC(=O)[C@H](Cc3ccc(OCC(=O)O)cc3)NC(=O)[C@H](CN)NC(=O)CSC[C@@H](C(=O)N[C@@H](CCN)C(=O)NCCCCCCCCCCC(=O)O)NC(=O)[C@H](CCCN)NC(=O)[C@H](C(C)C)NC(=O)[C@H](CC3CCCCC3)NC(=O)[C@H](CCN)NC(=O)[C@@H](CC(C)C)NC(=O)[C@H](CCCN)NC(=O)[C@H](CCCNC(N)=O)NC(=O)[C@H](Cc3ccc(-c4ccccc4)cc3)NC(=O)[C@H](Cc3ccc(OCC(=O)O)cc3)NC2=O)c1 [Compound 2844] ({CH2CO}-[Dap]Y(Carboxymethyl)D[Phe(3-Me)]Y(Carboxymethyl)[Bip][Cit][Orn][dL][Dab][Cha]V[Orn]C[Dab][Aun]-OH; thioether N-14) | 25.5
CC(=O)NCCCC[C@@H]1NC(=O)[C@H](Cc2ccc(-c3ccccc3)cc2)NC(=O)[C@H](Cc2ccc(O)cc2)NC(=O)[C@H](Cc2cccc(C)c2)NC(=O)[C@H](CC(=O)O)NC(=O)[C@H](Cc2ccc(OCC(=O)O)cc2)NC(=O)[C@H](CCN)NC(=O)CSC[C@@H](C(=O)N[C@@H](CCN)C(=O)N[C@@H](CO)C(=O)NCCCCCCCCCCCC(=O)O)NC(=O)[C@H](CCCN)NC(=O)[C@H](C(C)(C)O)NC(=O)[C@H](CC2CCCCC2)NC(=O)[C@H](CCN)NC(=O)[C@@H](CC(C)C)NC(=O)[C@H](CCCN)NC1=O [Compound 3620] ({CH2CO}-[Dab]Y(Carboxymethyl)D[Phe(3-Me)]Y[Bip]K(Ac)[Orn][dL][Dab][Cha][Val(3-OH)][Orn]C[Dab]S[12Ado]-OH; thioether N-14) | 37.2
Cc1cccc(C[C@@H]2NC(=O)[C@H](CC(=O)O)NC(=O)[C@H](Cc3ccc(OCC(=O)O)cc3)NC(=O)[C@H](CCCNC(=N)N)NC(=O)CSC[C@@H](C(=O)N[C@@H](CCN)C(=O)NCCCCCCCCCCC(=O)O)NC(=O)[C@H](C(C)O)NC(=O)[C@H](C(C)C)NC(=O)[C@H](CC3CCCCC3)NC(=O)[C@H](CCN)NC(=O)[C@@H](CC(C)C)NC(=O)[C@H](CCCN)NC(=O)[C@H](Cc3ccc(O)cc3)NC(=O)[C@H](Cc3ccc(-c4ccccc4)cc3)NC(=O)[C@H](CCCc3ccccc3)NC2=O)c1 (stereo partly drawn) [Compound 3420] ({CH2CO}-RY(Carboxymethyl)D[Phe(3-Me)][hhPhe][Bip]Y[Orn][dL][Dab][Cha]V[Thr(3ξ)]C[Dab][Aun]-OH; thioether N-14) | 60.9
CC(=O)NCCCC[C@@H]1NC(=O)[C@H](Cc2ccc(-c3ccccc3)cc2)NC(=O)[C@H](C(C)C)NC(=O)[C@H](Cc2cccc(C)c2)NC(=O)[C@H](CC(=O)O)NC(=O)[C@H](Cc2ccc(OCC(=O)O)cc2)NC(=O)[C@H](CCCNC(=N)N)NC(=O)CSC[C@@H](C(=O)N[C@H](CCCN)C(=O)NCCCCCCCCCCC(=O)O)NC(=O)[C@H](C(C)O)NC(=O)[C@H](C(C)C)NC(=O)[C@H](CC2CCCCC2)NC(=O)[C@H](CCN)NC(=O)[C@@H](CC(C)C)NC(=O)[C@H](CCCN)NC1=O (stereo partly drawn) [Compound 3559] ({CH2CO}-RY(Carboxymethyl)D[Phe(3-Me)]V[Bip]K(Ac)[Orn][dL][Dab][Cha]V[Thr(3ξ)]C[dOrn][Aun]-OH; thioether N-14) | 14.1
Cc1cccc(C[C@@H]2NC(=O)[C@H](CC(=O)O)NC(=O)[C@H](Cc3ccc(OCC(=O)O)cc3)NC(=O)[C@H](CN)NC(=O)CSC[C@@H](C(=O)N[C@@H](CCN)C(=O)NCCCCCCCCCCC(=O)O)NC(=O)[C@H](CCCNC(=N)N)NC(=O)[C@H](C(C)C)NC(=O)[C@H](CC3CCCCC3)NC(=O)[C@H](CCN)NC(=O)[C@@H](CC(C)C)NC(=O)[C@H](CCCN)NC(=O)[C@H](C(C)C)NC(=O)[C@H](Cc3ccc(-c4ccccc4)cc3)NC(=O)[C@H](C(C)C)NC2=O)c1 [Compound 2560] ({CH2CO}-[Dap]Y(Carboxymethyl)D[Phe(3-Me)]V[Bip]V[Orn][dL][Dab][Cha]VRC[Dab][Aun]-OH; thioether N-14) | 17
CC(C)C[C@H]1NC(=O)[C@H](CCCN)NC(=O)[C@H](C(C)C)NC(=O)[C@H](Cc2ccc(-c3ccccc3)cc2)NC(=O)[C@H](C(C)C)NC(=O)[C@H](Cc2c[nH]c3ccccc23)NC(=O)[C@H](CC(=O)O)NC(=O)[C@H](Cc2ccc(OCC(=O)O)cc2)NC(=O)[C@H](CCCCNC(=N)N)NC(=O)CSC[C@@H](C(=O)NCC(=O)N[C@@H](CCCN)C(=O)NCCCCCCCCCCCC(=O)O)NC(=O)[C@H](CN)NC(=O)[C@H](C(C)C)NC(=O)[C@H](CC2CCCCC2)NC(=O)[C@H](CCN)NC1=O [Compound 3175] ({CH2CO}-[hArg]Y(Carboxymethyl)DWV[Bip]V[Orn][dL][Dab][Cha]V[Dap]CG[Orn][12Ado]-OH; thioether N-14) | 17.7

Molecules with a lower IC50, results first:

IC50 [nM] | Compound
13.5 | Cc1cccc(C[C@@H]2NC(=O)[C@H](CC(=O)O)NC(=O)[C@H](Cc3ccc(OCC(=O)O)cc3)NC(=O)[C@H](CC(N)=O)NC(=O)CSC[C@@H](C(=O)N[C@@H](CCN)C(=O)NCCCCCCCCCCC(=O)O)NC(=O)[C@H]([C@H](C)O)NC(=O)[C@H](C(C)C)NC(=O)[C@H](CC3CCCCC3)NC(=O)[C@H](CCN)NC(=O)[C@@H](CC(C)C)NC(=O)[C@H](CCCN)NC(=O)[C@H](Cc3ccc(O)cc3)NC(=O)[C@H](Cc3ccc(-c4ccccc4)cc3)NC(=O)[C@H](C(C)C)NC2=O)c1 [Compound 3377] ({CH2CO}-NY(Carboxymethyl)D[Phe(3-Me)]V[Bip]Y[Orn][dL][Dab][Cha]V[aThr]C[Dab][Aun]-OH; thioether N-14)
12.3 | Cc1cccc(C[C@@H]2NC(=O)[C@H](CC(=O)O)NC(=O)[C@H](Cc3ccc(OCC(=O)O)cc3)NC(=O)[C@H](CN)NC(=O)CSC[C@@H](C(=O)N[C@@H](C)C(=O)N[C@@H](CCN)C(=O)NCC(=O)NCCCCCCCCCCC(=O)O)NC(=O)[C@H]([C@@H](C)O)NC(=O)[C@H](C(C)C)NC(=O)[C@H](CC3CCCCC3)NC(=O)[C@H](CCN)NC(=O)[C@@H](CC(C)C)NC(=O)[C@H](CCCN)NC(=O)[C@H](CCCNC(N)=O)NC(=O)[C@H](Cc3ccc(-c4ccccc4)cc3)NC(=O)[C@H](C(C)C)NC2=O)c1 [Compound 1051] ({CH2CO}-[Dap]Y(Carboxymethyl)D[Phe(3-Me)]V[Bip][Cit][Orn][dL][Dab][Cha]VTCA[Dab]G[Aun]-OH; thioether N-14)
10.6 | Cc1cccc(C[C@@H]2NC(=O)[C@H](CC(=O)O)NC(=O)[C@H](Cc3ccc(OCC(=O)O)cc3)NC(=O)[C@H](CCNC(=O)C(C)(C)C)NC(=O)CSC[C@@H](C(=O)N[C@@H](CCN)C(=O)NCCCCCCCCCCC(=O)O)NC(=O)[C@H](CCC(N)=O)NC(=O)[C@H](C(C)C)NC(=O)[C@H](CC3CCCCC3)NC(=O)[C@H](CCN)NC(=O)[C@@H](CC(C)C)NC(=O)[C@H](CCCN)NC(=O)[C@H](Cc3ccc(OCC(=O)O)cc3)NC(=O)[C@H](Cc3ccc(-c4ccccc4)cc3)NC(=O)[C@H](Cc3ccc(C(=O)O)cc3)NC2=O)c1 [Compound 2128] ({CH2CO}-[Dab](Piv)Y(Carboxymethyl)D[Phe(3-Me)][Phe(4-COOH)][Bip]Y(Carboxymethyl)[Orn][dL][Dab][Cha]VQC[Dab][Aun]-OH; thioether N-14)
10.2 | CC(C)C[C@H]1NC(=O)[C@H](CCN)NC(=O)[C@H](C(C)C)NC(=O)[C@H](Cc2ccc(-c3ccccc3)cc2)NC(=O)[C@H](C(C)C)NC(=O)[C@H](Cc2c[nH]c3ccccc23)NC(=O)[C@H](CC(=O)O)NC(=O)[C@H](Cc2ccc(OCC(=O)O)cc2)NC(=O)[C@H](Cc2ccsc2)NC(=O)CSC[C@@H](C(=O)NCCOCCOCC(=O)N[C@@H](CCN)C(=O)NCCCCCCCCCCC(=O)O)NC(=O)[C@H](CCCN)NC(=O)[C@H](C(C)C)NC(=O)[C@H](CC2CCCCC2)NC(=O)[C@H](CCN)NC1=O [Compound 3284] ({CH2CO}-[3Thi]Y(Carboxymethyl)DWV[Bip]V[Dab][dL][Dab][Cha]V[Orn]C[AEEA][Dab][Aun]-OH; thioether N-14)
7.6 | COC[C@@H]1NC(=O)CSC[C@@H](C(=O)N[C@@H](CCN)C(=O)NCCCCCCCCCCC(=O)O)NC(=O)[C@H](CO)NC(=O)[C@H](C(C)(C)O)NC(=O)[C@H](CC2CCCCC2)NC(=O)[C@H](CCN)NC(=O)[C@@H](CC(C)C)NC(=O)[C@H](CCCN)NC(=O)[C@H](Cc2ccc(OCC(=O)O)cc2)NC(=O)[C@H](Cc2ccc(-c3ccccc3)cc2)NC(=O)[C@H](Cc2ccc(OCC(=O)O)cc2)NC(=O)[C@H](Cc2cccc(C)c2)NC(=O)[C@H](CC(=O)O)NC(=O)[C@H](Cc2ccc(OCC(=O)O)cc2)NC1=O [Compound 2207] ({CH2CO}-S(Me)Y(Carboxymethyl)D[Phe(3-Me)]Y(Carboxymethyl)[Bip]Y(Carboxymethyl)[Orn][dL][Dab][Cha][Val(3-OH)]SC[Dab][Aun]-OH; thioether N-14)
7.6 | CC(C)C[C@H]1NC(=O)[C@H](CCCN)NC(=O)[C@H](C(C)C)NC(=O)[C@H](Cc2ccc(-c3ccccc3)cc2)NC(=O)[C@H](C(C)C)NC(=O)[C@H](Cc2c[nH]c3ccccc23)NC(=O)[C@H](CC(=O)O)NC(=O)[C@H](Cc2ccc(OCC(=O)O)cc2)NC(=O)[C@H](CCCNC(=N)N)NC(=O)CSC[C@@H](C(=O)NCC(=O)NCCOCCOCC(=O)N[C@@H](CCCN)C(=O)NCCCCCCCCCCCC(=O)O)NC(=O)[C@H](CO)NC(=O)[C@H](C(C)C)NC(=O)[C@H](CC2CCCCC2)NC(=O)[C@H](CCN)NC1=O [Compound 3181] ({CH2CO}-RY(Carboxymethyl)DWV[Bip]V[Orn][dL][Dab][Cha]VSCG[AEEA][Orn][12Ado]-OH; thioether N-14)
